Reference: patent US20230002327A1, “SMALL-MOLECULE REGULATOR OF TLR8” (TSINGHUA UNIVERSITY, priority 2019, published 2023)

Key:
[1] = test system: R848-induced signaling pathway in human peripheral blood mononuclear cells; test: ELISA of TNF-α in R848-treated human peripheral blood mononuclear cells; assay type: cell-based; conditions: human peripheral blood mononuclear cells (FIG. 8)
Procedure: After 48 hours, suspending cells would adhere onto the surface of the 12-well plate, non-adhered cells and the medium were aspirated, and cells were washed with sterile […] buffer (3×1 mL). RPMI medium was added (1 mL/well), and R848 (1 μg/mL) and various concentrations of Compound 24 or Compound 10 (as a negative control) were further added to treat cells. Or, the same amount of peripheral blood mononuclear cells derived from healthy human were used instead of THP-1 cells for subsequent experiments.
After 24 hours, the supernatant of the medium was collected and stored in a freezer at −80° C. Cells were washed with PBS (3×1 mL), the 12-well plate was placed on ice, and then 400 μL of lysis buffer (containing protease inhibitor) was added to each well, during which the cells were pipetted every five minutes. After 20 minutes, the mixture was transferred to the corresponding 1.5-mL tube and centrifuged at 13.2K rpm and 4° C. for 20 minutes. 350 μL of the supernatant was collected into a new centrifuge tube and frozen at −80° C.
Cytokines interleukin-1β(IL-1β), interleukin-6 (IL-6) and tumor necrosis factor (TNF-α) were quantified by enzyme-linked immunosorbent assay (ELISA) according to the instructions of the kit provided by the manufacturer.

[2] = test system: peripheral blood mononuclear cells of patients suffering from rheumatoid arthritis; test: TNF-α in PBMC of rheumatoid arthritis patients; assay type: cell-based, human; conditions: PBMC derived from rheumatoid arthritis patients (FIG. 9)
Procedure: Approximately 8 mL of blood was collected from untreated rheumatoid arthritis patients.
Peripheral blood mononuclear cells (PBMCs) were isolated from the whole blood derived from 6 rheumatoid arthritis patients using the lymphocyte separation medium, and the cells were seeded in a 96-well round-bottom plate at a density of 1×10^6 cells/mL immediately after the isolation (cultured in RPMI 1640 (0.25 mL/well)).
Afterwards, cells were treated with 0, 10, 20, 40 and 80 μM Compound 24, Compound 10 was used as a negative control, and cells were placed in a cell incubator (37° C., 5% CO2) for incubation.
After 24 hours, the resultant was centrifuged at 4,000 rpm/minute for 10 minutes, and then the supernatant was collected, frozen to −80° C. and used for the determination of TNF-α. Quantification was conducted using a human TNF ELISA Kit.

OCCCc1nnc(S)n1-c1ccc(Cl)cc1Cl [Compound 10, 3-(4-(2,4-dichlorophenyl)-5-mercapto-4H-1,2,4-triazole-3-yl)propan-1-ol]
inhibitory effect on inflammatory factor TNF-α [1]: did not exert inhibitory effect | inhibitory effect on inflammatory factor TNF-α [2]: did not show such effect
